Here are results for 3 compounds from patent publication US9642874B2, “Compositions of selenoorganic compounds and methods of use thereof” (Alltech, Inc., priority 2014, dated 2017).

One assay deals with Foxo4. The experiment in a line: Western blot of Foxo4 / pFoxo4T28 in AML-12 cells. The settings on record: individual compound, 150 ppb, serum-containing media, 6 hours and 24 hours. It is filed as cell-based, mouse. The procedure: (§1) For the studies of protein expression, AML-12 cells were amplified in ITS, Dex and FBS-containing DMEM/F12 media, and cultured on 6-well (3.33×10^5 cells/well) plates in 10% FBS ITS-free DMEM/F12 media with or without Dex overnight. These cells were treated with control (water) or various compounds in either serum containing (10% FBS ITS-free DMEM/F12 media supplemented with Dex) or serum-free (ITS/Dex-free DMEM/F12 media) for 6 hours and 24 hours. In addition, human neuroblast IMR-32 cells were cultured in 10% FBS EMEM media and then treated with control (water), selenium compounds and their sulfur analogs in the same serum-containing media for 6 hours and 24 hours.
(§2) AML-12 liver cells or IMR-32 neuronal cells were seeded on 6-well plates, and then treated with vehicle and various compounds for 6 hours and 24 hours, as described herein. […] Protein levels in the supernatant of these cell lysates were determined using the Pierce Micro-BCA protein assay kit (Thermo Scientific-Piece Biotechnology, Rockford, Ill.) according to the manufacturer's protocol. […]
(§3) All primary antibodies except Actb (Li-COR, Lincoln, Nebr.), Elf2bε and pElf2bε (Abcam, Cambridge, Mass.) were purchased from Cell Signaling Inc. Positive signals on the membrane blots were detected using the Amersham's enhanced chemiluminescence Western Blotting Prime Detection reagents (GE healthcare Lifescience, Pittsburgh, Pa.). Images of luminescence signals on the membrane blots were captured using the LI-COR Odyssey Fc Image system (Lincoln, Nebr.). […] Protein band densities in the Western blots were determined using the Li-COR Image studio software or NIH ImageJ software and then normalized by Actb level in each sample. […]
(§4) To determine if the combination of Compounds CDE can regulate FOXO phosphorylation in the liver, AML-12 cells were treated with control, and 150 ppb of selenium Compounds CDE, and their sulfur analogs, 150 ppb of Compounds HIJ, in serum- and Dex-containing media but without ITS for 6 hours. […] Quantitative data of protein expression in Western blots are presented as mean±SEM of 3 samples. […]

For the next assay, the system named is Foxo3. Description: Western blot of Foxo3 / pFoxo3T32 in AML-12 cells. The settings on record: individual compound, 150 ppb, serum-containing media, 6 hours and 24 hours. It is filed as cell-based, mouse. The procedure:
as §1, §2, §3, §4

Turning to `C[Se]C[C@H]1O[C@@H](n2cnc3c(N)ncnc32)C(O)C1O` (stereo in doubt) [Compound C, 5′-Methylselenoadenosine], the pFoxo4T28 protein levels entry in the assay with Foxo4 was “No change”. Also, in the assay with Foxo3, the pFoxo3T32 protein levels result is listed as “No change”.

For the compound `Nc1ncnc2c1ncn2[C@@H]1O[C@H](C[Se]CC[C@@H](N)C(=O)O)C(O)C1O` (stereo partly drawn) [Compound D, 5′-Selenoadenosyl homocysteine], the pFoxo4T28 protein levels entry with Foxo4 is on record as “No change”. The pFoxo3T32 protein levels entry with Foxo3 is on record as “No change”.

`C[Se]C[C@H](NC(=O)CC[C@H](N)C(=O)O)C(=O)O` [Compound E, γ-L-glutamyl-Se-methyl-L-selenocysteine]: the pFoxo4T28 protein levels entry in the assay on Foxo4 was “No change”. For the same compound, the pFoxo3T32 protein levels entry with Foxo3 is recorded as “No change”.
